Test results as given in patent US4923986A, “Derivatives of physiologically active substance K-252” (Kyowa Hakko Kogyo Co., Ltd., priority 1988, dated 1990).
In brackets after ≈: the same amount, converted by molar mass.

Assays:
MCF 7 cells = experiment: MCF 7 cell growth inhibition test; type: cell-based; details: Homo sapiens, MCF7; MCF-7 cells, contact for 72 hours; read-out: cell growth inhibitory activity IC50, MCF-7
Procedure: (§1) Compound (I) was examined for C-kinase inhibitory activity and cell growth inhibitory activity by the following method.
(1) MCF 7 cell growth inhibition test:
(§2) MCF 7 cells (4.5×10^4 cells/ml) prepared in RPMI 1640 medium containing 10% fetal calf serum, 10 μg/ml insulin and 10^-8 M estradiol are put into wells of a 96-well microtiter plate in the amount of 0.1 ml per each well. After incubation at 37° C. overnight in CO2 -incubator, 0.05 ml each of a test sample appropriately diluted with the culture medium is added to each well. In the case of contact for 72 hours, the cells are further cultured in CO2 -incubator, and then the culture supernatant is removed and the wells are washed once with PBS(-). Thereafter, 0.1 ml of fresh medium is added to each well, followed by culturing at 37° C. for 72 hours in CO2 -incubator. After the culture supernatant is removed, 0.1 ml of the culture medium containing 0.02% Neutral Red is added to each well, followed by culturing at 37° C. for one hour in CO2 -incubator, whereby the cells are stained. Then, the culture supernatant is removed and the cells are washed once with physiological saline. The pigment is extracted with 0.001N HCl/30% ethanol and absorption is measured at 550 nm with a microplate reader. By comparing the absorption of intact cells with those of the cells treated with a test compound in known concentrations, the concentration of the test compound at which growth of the cells is inhibited 50% is calculated as IC50.

HeLaS3 cells = experiment: HeLaS3 cell growth inhibition test; type: cell-based; details: Homo sapiens, HeLa S3; HeLaS3 cells, contact for 72 hours; read-out: cell growth inhibitory activity IC50, HeLaS3
Procedure: as §1, §2
(3) HeLaS3 cell growth inhibition test:
HeLaS3 cells (3×10^4 cells/ml) prepared in MEM medium containing 10% fetal calf serum and 2 mM glutamine are put into wells of a 96-well microtiter plate in the amount of 0.1 ml per each well.
Thereafter, the test is carried out in the same manner as in (1).

COLO320DM cells = experiment: COLO320DM cell growth inhibition test; type: cell-based; details: Homo sapiens, COLO 320DM; COLO320DM cells, cells counted with a microcell counter; read-out: cell growth inhibitory activity IC50, COLO320DM
Procedure: as §2, with “After” for “MCF 7 cells (4.5×10^4 cells/ml) prepared in RPMI 1640 medium containing 10% fetal calf serum, 10 μg/ml insulin and 10^-8 M estradiol are put into wells of a 96-well microtiter plate in the amount of 0.1 ml per each well. After”, “reader.” for “reader. By comparing the absorption of intact cells with those of the cells treated with a test compound in known concentrations, the concentration of the test compound at which growth of the cells is inhibited 50% is calculated as IC50.”
(4) COLO320DM cell growth inhibition test:
Thereafter, the test is carried out in the same manner as in (1) except that the cells are counted with a microcell counter.

[1] = target: C-kinase (protein kinase C); experiment: C-Kinase inhibitory activity test; type: biochemical; details: enzyme activity inhibited 50%

SMILES | IC50 (HeLaS3 cells) [µg/mL] | C-Kinase inhibitory activity IC50 [1] [µg/mL] | IC50 (MCF 7 cells) [µg/mL] | IC50 (COLO320DM cells) [µg/mL]
COC(=O)[C@@]1(O)C[C@H]2O[C@]1(C)n1c3ccccc3c3c4c(c5c6cc(N)ccc6n2c5c31)C(=O)NC4 (relative stereo) [Compound 9] | 0.01 (≈ 0.0207 µM) | 0.175 | 0.13 (≈ 0.269 µM) | 0.05 (≈ 0.104 µM)
COC(=O)[C@@]1(O)C[C@H]2O[C@]1(C)n1c3ccc(N)cc3c3c4c(c5c6cc(N)ccc6n2c5c31)C(=O)NC4 (relative stereo) [Compound 10] | 0.07 (≈ 0.141 µM) | 0.02 | 0.95 (≈ 1.91 µM) | 0.1 (≈ 0.201 µM)
COC(=O)[C@@]1(O)C[C@H]2O[C@]1(C)n1c3ccccc3c3c4c(c5c6cccc(N)c6n2c5c31)C(=O)NC4 (relative stereo) [Compound 11] | 0.1 (≈ 0.207 µM) |  | 0.47 (≈ 0.974 µM) | 0.16 (≈ 0.332 µM)
COC(=O)[C@@]1(O)C[C@H]2O[C@]1(C)n1c3ccccc3c3c4c(c5c6cc(N(C)C)ccc6n2c5c31)C(=O)NC4 (relative stereo) [Compound 12] | 0.17 (≈ 0.333 µM) |  | 0.36 (≈ 0.705 µM) | 0.11 (≈ 0.215 µM)
COC(=O)[C@@]1(O)C[C@H]2O[C@]1(C)n1c3ccc(O)cc3c3c4c(c5c6cc(O)ccc6n2c5c31)C(=O)NC4 (relative stereo) [Compound 16] | 0.44 (≈ 0.881 µM) | 0.005 | 0.84 (≈ 1.68 µM) | 
C[C@]12O[C@H](C[C@]1(O)CO)n1c3ccc(O)cc3c3c4c(c5c6ccccc6n2c5c31)CNC4=O (relative stereo) [Compound 21] | 0.46 (≈ 1.01 µM) | 0.01 | 0.76 (≈ 1.67 µM) | 0.29 (≈ 0.637 µM)
C[C@]12O[C@H](C[C@]1(O)CO)n1c3ccc(N)cc3c3c4c(c5c6ccccc6n2c5c31)CNC4=O (relative stereo) [Compound 23] | 0.15 (≈ 0.33 µM) | 0.038 | 0.34 (≈ 0.748 µM) | 0.22 (≈ 0.484 µM)
C[C@]12O[C@H](C[C@]1(O)CO)n1c3ccc(Br)cc3c3c4c(c5c6ccccc6n2c5c31)CNC4=O (relative stereo) [Compound 24] | 0.06 (≈ 0.116 µM) |  | 0.19 (≈ 0.367 µM) | 0.06 (≈ 0.116 µM)
Cc1ccc2c(c1)c1c3c(c4c5ccccc5n5c4c1n2[C@H]1C[C@](O)(CO)[C@]5(C)O1)CNC3=O (relative stereo) [Compound 26] | 0.03 (≈ 0.0662 µM) |  | 0.26 (≈ 0.573 µM) | 0.03 (≈ 0.0662 µM)
C[C@]12O[C@H](C[C@]1(O)COC(=O)CCC(=O)O)n1c3ccccc3c3c4c(c5c6ccccc6n2c5c31)CNC4=O (relative stereo) [Compound 27] | 0.53 (≈ 0.982 µM) | 0.017 | > 1 | > 1
C[C@]12O[C@H](C[C@]1(O)COC1CCCCO1)n1c3ccccc3c3c4c(c5c6ccccc6n2c5c31)CNC4=O (stereo partly shown) [Compound 28] | 0.2 (≈ 0.382 µM) |  | 1 (≈ 1.91 µM) | 0.32 (≈ 0.611 µM)
CC12OC(CC1(O)CNC(=O)C1CCCN1)n1c3ccccc3c3c4c(c5c6ccccc6n2c5c31)CNC4=O (stereo not shown) [Compound 35] | 0.05 (≈ 0.0934 µM) |  | 0.27 (≈ 0.504 µM) | 0.26 (≈ 0.485 µM)
CC12OC(CC1(O)CN1CCOCC1)n1c3ccccc3c3c4c(c5c6ccccc6n2c5c31)CNC4=O (stereo not shown) [Compound 38] | 0.18 (≈ 0.354 µM) | 0.10 |  | 0.3 (≈ 0.59 µM)
CC12OC(CC13CN(CC=NNC(=N)N)C(=O)O3)n1c3ccccc3c3c4c(c5c6ccccc6n2c5c31)CNC4=O (stereo not shown) [Compound 63] | 0.2 (≈ 0.355 µM) | 0.053 | 0.45 (≈ 0.8 µM) | 0.64 (≈ 1.14 µM)
CC12OC(CC1(O)CO)n1c3ccccc3c3c4c(c5c6ccccc6n2c5c31)C(=O)NC4=O (stereo not shown) [Compound 67] | 0.95 (≈ 2.1 µM) | 0.016 |  | 0.18 (≈ 0.397 µM)
COC(=O)C1(O)CC2OC1(C)n1c3ccccc3c3c4c(c5c6ccccc6n2c5c31)C(=O)N(CCN(C)C)C4=O (stereo not shown) [Compound 69] | 0.88 (≈ 1.59 µM) |  | > 1 | 0.68 (≈ 1.23 µM)
CN(C)CCN1C(=O)c2c(c3c4ccccc4n4c3c3c2c2ccccc2n3C2CC(O)(CO)C4(C)O2)C1=O (stereo not shown) [Compound 70] | 0.5 (≈ 0.953 µM) |  | 0.45 (≈ 0.858 µM) | 0.41 (≈ 0.782 µM)
CC12OC(CC1(O)CN)n1c3ccccc3c3c4c(c5c6ccccc6n2c5c31)C(=O)N(N)C4=O (stereo not shown) [Compound 71] | > 1 |  | 1 (≈ 2.14 µM) | > 1
CC12OC(CC1(O)CO)n1c3ccccc3c3c4c(c5c6ccccc6n2c5c31)C(=O)N(N)C4=O (stereo not shown) [Compound 72] | 0.24 (≈ 0.512 µM) | 0.22 | 0.2 (≈ 0.427 µM) | 0.37 (≈ 0.79 µM)
CN1CC2(CC3OC2(C)n2c4ccccc4c4c5c(c6c7ccccc7n3c6c42)C(=O)NC5=O)OC1=O (stereo not shown) [Compound 75] | 0.27 (≈ 0.548 µM) |  |  | 0.18 (≈ 0.365 µM)
CC12OC(CC1(O)C(=O)NO)n1c3ccccc3c3c4c(c5c6ccccc6n2c5c31)C(=O)NC4=O (stereo not shown) [Compound 76] | 0.4 (≈ 0.829 µM) |  | 0.62 (≈ 1.29 µM) | 0.06 (≈ 0.124 µM)

Now from value to compound, other results behind:

IC50 (HeLaS3 cells) [µg/mL] | C-Kinase inhibitory activity IC50 [1] [µg/mL] | SMILES | IC50 (MCF 7 cells) [µg/mL] | IC50 (COLO320DM cells) [µg/mL]
0.08 (≈ 0.157 µM) |  | COC(=O)CNC[C@@]1(O)C[C@H]2O[C@]1(C)n1c3ccccc3c3c4c(c5c6ccccc6n2c5c31)C(=O)NC4 (relative stereo) [Compound 31] | 0.8 (≈ 1.57 µM) | 0.31 (≈ 0.607 µM)
0.22 (≈ 0.443 µM) | 0.01 | C[C@]12O[C@H](C[C@]1(O)CNCC(=O)O)n1c3ccccc3c3c4c(c5c6ccccc6n2c5c31)CNC4=O (relative stereo) [Compound 32] | 0.74 (≈ 1.49 µM) | > 1
0.08 (≈ 0.162 µM) |  | CN(C)C=NC[C@@]1(O)C[C@H]2O[C@]1(C)n1c3ccccc3c3c4c(c5c6ccccc6n2c5c31)C(=O)NC4 (relative stereo) [Compound 33] | 0.26 (≈ 0.527 µM) | 1 (≈ 2.03 µM)
0.03 (≈ 0.0605 µM) |  | CC12OC(CC1(O)CNC(=O)CN)n1c3ccccc3c3c4c(c5c6ccccc6n2c5c31)CNC4=O (stereo not shown) [Compound 34] | 0.24 (≈ 0.484 µM) | 0.17 (≈ 0.343 µM)
0.08 (≈ 0.19 µM) | 0.02 | CC12OC(CC13CO3)n1c3ccccc3c3c4c(c5c6ccccc6n2c5c31)CNC4=O (stereo not shown) [Compound 36] | 0.52 (≈ 1.23 µM) | 0.12 (≈ 0.285 µM)
0.14 (≈ 0.267 µM) |  | CC12OC(CC1(O)CN1CCSCC1)n1c3ccccc3c3c4c(c5c6ccccc6n2c5c31)CNC4=O (stereo not shown) [Compound 39] | > 1 | 0.38 (≈ 0.724 µM)
0.38 (≈ 0.749 µM) |  | CC12OC(CC1(O)CN1CCNCC1)n1c3ccccc3c3c4c(c5c6ccccc6n2c5c31)CNC4=O (stereo not shown) [Compound 40] | > 1 | > 1
0.06 (≈ 0.118 µM) |  | CC12OC(CC1(O)CN1CCCCC1)n1c3ccccc3c3c4c(c5c6ccccc6n2c5c31)CNC4=O (stereo not shown) [Compound 41] | > 1 | 0.07 (≈ 0.138 µM)
0.19 (≈ 0.371 µM) | 0.02 | CC12OC(CC1(O)CNCC(O)CO)n1c3ccccc3c3c4c(c5c6ccccc6n2c5c31)CNC4=O (stereo not shown) [Compound 43] | 0.52 (≈ 1.01 µM) | > 1
0.22 (≈ 0.486 µM) | 0.013 | CC12OC(CC1(O)C=NO)n1c3ccccc3c3c4c(c5c6ccccc6n2c5c31)CNC4=O (stereo not shown) [Compound 50] |  | 0.17 (≈ 0.376 µM)
0.23 (≈ 0.443 µM) | 0.031 | C[C@]12O[C@H](C[C@]1(O)C=NNC1=NCCN1)n1c3ccccc3c3c4c(c5c6ccccc6n2c5c31)CNC4=O [Compound 51] | 0.5 (≈ 0.962 µM) | 1 (≈ 1.92 µM)
0.46 (≈ 0.932 µM) | 0.021 | CC12OC(CC1(O)C=NNC(=N)N)n1c3ccccc3c3c4c(c5c6ccccc6n2c5c31)CNC4=O (stereo not shown) [Compound 52] | 0.4 (≈ 0.81 µM) | > 1
0.07 (≈ 0.151 µM) | 0.006 | CC1=NCC2(CC3OC2(C)n2c4ccccc4c4c5c(c6c7ccccc7n3c6c42)C(=O)NC5)O1 (stereo not shown) [Compound 56] | 0.4 (≈ 0.865 µM) | 1 (≈ 2.16 µM)
0.17 (≈ 0.355 µM) | 0.046 | CN1CC2(CC3OC2(C)n2c4ccccc4c4c5c(c6c7ccccc7n3c6c42)C(=O)NC5)OC1=O (stereo not shown) [Compound 59] | 1 (≈ 2.09 µM) | 0.39 (≈ 0.815 µM)
